{"source": "patent US11203582B2", "about": "“Benzamide derivatives for inhibiting endoplasmic reticulum (ER) stress” (The Board of Regents of the University of Oklahoma, priority 2017, dated 2021)", "assay_type_in_all_cases": "cell-based, rat", "key": {"CHOP mRNA": {"test_system": "CHOP mRNA", "assay": "qRT-PCR of CHOP mRNA in INS-1 cells", "protocol": "(§1) (A, B) INS-1 cells were treated with or without Tm (0.1 μg/mL) in the presence of 13d or DMSO for 8 h. ATF4 (A) and CHOP (B) mRNA levels were analyzed by qRT-PCR. Relative mRNA levels were normalized against the housekeeping gene Cyclophilin A using the comparative CT method. The results were expressed as the fold-increase over mRNA levels in untreated control cells and are the means of 3 replicate wells and representative of 3 independent experiments. ** P<0.01 compared with Tm treatment alone. Bar indicates SD. (C-E) INS-1 cells were treated with or without Tm (0.1 μg/mL) in the presence of 13d or DMSO for 8 hATF4 and CHOP protein levels were determined by Western blotting (C). α-Tubulin was used as an internal control. Quantification of ATF4 (D) and CHOP (E) protein levels was analyzed by ImageJ program, which was normalized by α-Tubulin protein level. The data shown are representative of 3 independent experiments.\nHaving established that compound 13d restores ER stress-impaired β-cell survival and function, we next investigated the mechanism of action by which 13d protects β-cells against ER stress. Chronic or severe ER stress activates all three branches of the UPR, PERK, IRE1α, and ATF6, leading to eventual cell death. First, we determined the effect of 13d on the activation of the PERK pathway in β-cells under ER stress. PERK activation phosphorylates eukaryotic translation initiator factor 2α (eIF2α), which in turn allows for the up-regulation of activating transcription factor 4 (ATF4) and of the pro-apoptotic gene C/EBP-homologous protein (CHOP). Thus, we used ATF4 and CHOP expression levels as markers of PERK pathway activation. […]\n(§2) INS-1 cells were seeded at 4×10^5 cells/well in 6-well plates and treated with compounds for the indicated times. […] Relative mRNA levels were normalized against the housekeeping gene Cyclophilin A and were determined by ΔΔCt calculated from the difference in ΔCt values between the target gene and Cyclophilin A with and without treatment, based on comparative CT (cycle threshold) method. […]"}, "INS2 mRNA": {"test_system": "INS2 mRNA", "assay": "qRT-PCR of INS2 mRNA in Tm-treated INS-1 cells", "settings": "Tm co-treatment, 24 h", "protocol": "(§3) (A-D) INS-1 cells were treated with or without Tm (0.1 m/mL) in the presence of 13d at indicated concentrations or DMSO for 24 h. The mRNA levels of INS1 (A), INS2 (B), PDX1 (C), and MafA (D), were analyzed by qRT-PCR. Relative mRNA levels were normalized against the housekeeping gene Cyclophilin A using the comparative CT method. The results are the means of 3 replicate wells and are representative of 3 independent experiments. * P<0.05 and ** P<0.01 compared with Tm treatment alone. Bars indicate SD. (E) Insulin secretion by INS-1 cells incubated with 1.7 mM and 20 mM glucose in the presence or absence of Tm (0.1 μg/mL) and 13d. Secreted insulin was measured by ELISA after 24 h treatment. * P<0.05. The amount of insulin secreted in response to 1.7 mM glucose in the absence of Tm was set to 1.0 and was normalized with total protein concentration.\nas §2"}, "ATF4 mRNA": {"test_system": "ATF4 mRNA", "assay": "qRT-PCR of ATF4 mRNA in INS-1 cells", "protocol": "as §1\nHaving established that compound 13d restores ER stress-impaired β-cell survival and function, we next investigated the mechanism of action by which 13d protects β-cells against ER stress. Chronic or severe ER stress activates all three branches of the UPR, PERK, IRE1α, and ATF6, leading to eventual cell death. First, we determined the effect of 13d on the activation of the PERK pathway in β-cells under ER stress. […]"}, "INS-1 cells [1]": {"test_system": "INS-1 cells", "assay": "MTT cell viability assay, INS-1 cells treated with Tm", "settings": "Tm 0.1 μg/mL, 72 h, FIG. 2B", "text": "The measurement of intracellular ATP level was use as a surrogate assay for cell viability. […] To confirm the authenticity of 13d's protective effect on β-cell viability (not simply an increase in ATP-specific measurement), we used the MTT assay, which measures the activity of NAD(P)H-dependent cellular oxidoreductase enzymes, as an orthogonal method to measure cell viability. […] To determine whether the protective effect of 13d on β-cells is specific to INS-1 cells, another β-cell line, βTC6, was used. […] In addition, compound 13d on its own had no effect on β-cell viability in both cell lines (FIG. 2C-D).\nINS-1 cells or βTC6 cells were seeded at 3×10^3 cells/well in a 384-well plate and treated with compounds at the indicated concentrations. After 3 d treatment, the medium was aspirated and 10 μl of MTT reagent (Cayman Chemical, MI, USA, prepared according to manufacturer's instruction) to each well was added and mixed gently for one minute on an orbital shaker. The cells were then incubated for three hours at 37° C. in a CO2 incubator. After incubation, add 100 μl of crystal dissolving solution to each well, and incubate for 4 hours in a 37° C. CO2 incubator. Viability will be measured for the absorbance to each sample at 570 nm using EnVision multilabel plate reader (PerkinElmer, MA, USA)."}, "INS-1 cells [2]": {"test_system": "INS-1 cells", "assay": "Live-cell phase-contrast imaging of Tm-treated INS-1 cells", "set-up": "dose or concentration left out as unconfirmed", "settings": "48 h, FIG. 3B", "protocol": "(A) INS-1 cells were treated with or without Tm (0.1 m/mL) in the presence of 13d at indicated concentrations or DMSO for 24 h. Cleaved caspase-3 and PARP were determined by Western blotting. α-Tubulin was used as a loading control. The data shown are representative of 3 independent experiments. (B) INS-1 cells were treated with or without Tm (0.1 m/mL) in the presence of 13d (0.111M) or DMSO for 48 h, and live-cell phase-contrast images were acquired (magnification 10×). The images shown are representative of 3 independent experiments. (C) TUNEL staining of INS-1 cells. INS-1 cells were treated with 0.111 g/mL of Tm with or without compound 13d for 24 h before TUNEL staining. DAPI was used as a nuclear marker. Magnification is 20×. The images shown are representative of 3 independent experiments. (D) Quantification of TUNEL staining from 20 fields of images. ** P<0.01 compared with Tm treatment alone."}, "MafA mRNA": {"test_system": "MafA mRNA", "assay": "qRT-PCR of MafA mRNA in Tm-treated INS-1 cells", "settings": "Tm co-treatment, 24 h", "protocol": "as §3, §2"}, "INS1 mRNA": {"test_system": "INS1 mRNA", "assay": "qRT-PCR of INS1 mRNA in Tm-treated INS-1 cells", "settings": "Tm co-treatment, 24 h", "protocol": "as §3, §2"}, "PDX1 mRNA": {"test_system": "PDX1 mRNA", "assay": "qRT-PCR of PDX1 mRNA in Tm-treated INS-1 cells", "settings": "Tm co-treatment, 24 h", "protocol": "as §3, §2"}}}
{"smiles": "O=C(NCc1ccc(C(F)(F)F)cc1)c1cccc(CN2CCCCC2)c1", "note": "[Compound 13d, N-(4-trifluoromethylphenmethyl)-3-(N-piperidinyl)methyl benzamide]", "values": [{"measurement": "Tm-induced increase in CHOP mRNA level", "setting": "CHOP mRNA; Tm 0.1 μg/mL co-treatment, 8 h", "value": "almost completely abolished"}, {"measurement": "IC50", "setting": "CHOP mRNA; Tm, 8 h, read-out: IC50 for inhibition of Tm-induced CHOP expression", "value": 37, "unit": "nM"}, {"measurement": "effect on CHOP mRNA level on its own", "setting": "CHOP mRNA; without Tm", "value": "no effect"}, {"measurement": "Tm-suppressed INS2 mRNA level", "setting": "INS2 mRNA", "value": "completely rescued"}, {"measurement": "Tm-induced increase in ATF4 mRNA level", "setting": "ATF4 mRNA; Tm 0.1 μg/mL co-treatment, 8 h", "value": "almost completely abolished"}, {"measurement": "effect on ATF4 mRNA level on its own", "setting": "ATF4 mRNA; without Tm", "value": "no effect"}, {"measurement": "viability of INS-1 cells under Tm treatment (MTT)", "setting": "INS-1 cells [1]", "value": "restored the viability of INS-1 cells"}, {"measurement": "viable INS-1 cells with Tm co-treatment vs Tm alone", "setting": "INS-1 cells [2]", "value": "significantly more viable INS-1 cells"}, {"measurement": "Tm-decreased MafA mRNA expression level", "setting": "MafA mRNA", "value": "completely rescued"}, {"measurement": "Tm-suppressed INS1 mRNA level", "setting": "INS1 mRNA", "value": "completely rescued"}, {"measurement": "Tm-decreased PDX1 mRNA expression level", "setting": "PDX1 mRNA", "value": "completely rescued"}]}
